Measured values as given in paper PMC8217011, “Natural brominated phenoxyphenols kill persistent and biofilm-incorporated cells of MRSA and other pathogenic bacteria” (Applied Microbiology and Biotechnology, 2020).
In brackets after ≈: the same amount, converted by molar mass. Several values for one entry are separate records, joined by “and”; a condition that tells them apart may be missing. Equal entries are not always repeated.

Tests used:
[1] = system: actively replicating MRSA strain Mu50; test: Killing kinetics, actively replicating cells (CFU plating); assay type: cell-based, Staphylococcus aureus; conditions: MHB, start 10^6 CFU/mL; for time of first antibacterial effects: 4× MIC; for time until viability reached the detection limit: PPs at 4× MIC, moxifloxacin 20 μM, detection limit 10^2 CFU/mL
Procedure: S. aureus cells were freshly incubated in MHB until an OD600 nm of approx. 0.6 was reached. Next, the cells were diluted to 10^6 CFU/mL in 5 mL MHB. […] At certain time points (0, 0.5, 1, 3, 6, 8, 24 h), 100 μL was removed from the culture, diluted and plated onto MHA plates. After 24-h incubation, colonies were counted and viability (expressed as colony-forming units per mL (CFU/mL)) was calculated considering the dilution factor.

[2] = system: stationary phase-induced persistent cells of MRSA strain Mu50; test: Persister killing kinetics (CFU plating); assay type: cell-based, Staphylococcus aureus; conditions: start 10^8 CFU/mL
Procedure: For persister killing kinetics, cells were grown overnight until a density of OD600 nm > 5.0 was reached and then washed three times with PBS. Next, cell density was adjusted to 10^8 CFU/mL in 5 mL PBS. […] Analysis was performed as described above.

A. baumannii ATCC 1605 = test: MIC determination (microbroth dilution); assay type: cell-based; conditions: Acinetobacter baumannii, ATCC1605, multidrug-resistant strain
Procedure: (§1) Cultures were, if not stated differently, incubated at 37 °C with aeration and shaking (150 rpm) in Mueller-Hinton broth (MHB). Bacteria were freshly incubated at the next morning from an overnight pre-culture for actively growing bacteria to an OD600 nm of approx. 0.6. To ensure persistent growth form, the bacteria were grown overnight until a density at OD600 nm > 5.0 was obtained. For biofilm growth, some colonies from a Mueller-Hinton agar (MHA) plate were picked and resuspended in MHB. Cell density has been adjusted to OD600 nm = 0.8, and cells were sown into a flat-bottom 96-well plate to be incubated statically at 37 °C with aeration. Studies were mainly performed with S. aureus Mu50.
(§2) The minimal inhibitory concentration (MIC) has been determined according to the CSLI guidelines (CLSI [2012]). Briefly, in a sterile polystyrene U-bottom 96-well plate, a 2-fold serial dilution ranging from 100 to 0.78 μM of testing compounds has been prepared in 50 μL MHB. A freshly inoculated S. aureus culture was grown until OD600 nm of approx. 0.6 and diluted to 10^6 CFU/mL in MHB. Finally, 50 μL of the latter cell suspension was added to each well and then incubated statically for 18–24 h at 37 °C. MIC was determined using BacTiterGlo ATP assay (Promega, Madison, WI, USA) and Tecan Infinite F200 Pro (Tecan, Männedorf, Switzerland). Moxifloxacin and DMSO were used as positive and negative control, respectively. Sublethal concentrations of colistin (0.1 μM) were used in some experiments to increase the permeability of the gram-negative cell envelope for compound testing. For E. cloacae, a broth microdilution assay was performed using a serial 2-fold dilution in 96-well flat-bottomed plates (Falcon, BD Bioscience, Heidelberg) of both PPs in broth LB medium (Roth, Karlsruhe) at a concentration range of 50–0.024 μM.

E. faecalis ATCC 51299 = test: MIC determination (microbroth dilution); assay type: cell-based; conditions: Enterococcus faecalis, ATCC51299
Procedure: as §1, §2

[3] = system: Staphylococcus aureus strain ATCC 25923; test: MIC determination (microbroth dilution); assay type: cell-based; conditions: ATCC25923
Procedure: as §1, §2

[4] = system: Pseudomonas aeruginosa PAO1; test: MIC determination (microbroth dilution); assay type: cell-based
Procedure: as §1, §2

[5] = system: Klebsiella pneumoniae ATCC 700603; test: MIC determination (microbroth dilution); assay type: cell-based; conditions: ATCC700603
Procedure: as §1, §2

[6] = system: Escherichia coli ATCC 25922; test: MIC determination (microbroth dilution); assay type: cell-based; conditions: Escherichia coli
Procedure: as §1, §2

[7] = system: Bacillus subtilis 168 trp C2; test: MIC determination (microbroth dilution); assay type: cell-based; conditions: 168TRPC2
Procedure: as §1, §2

S. aureus COL = test: MIC determination (microbroth dilution); assay type: cell-based; conditions: Staphylococcus aureus
Procedure: as §1, §2

S. aureus = test: Generation of spontaneous resistant mutants; assay type: cell-based, Staphylococcus aureus; conditions: for fold increased MIC of mutants: after 15 passages in liquid media with increasing sublethal concentrations; for resistance frequency: one-step selection on solid media at 5-fold MIC
Description: Spontaneous resistant mutants have been generated with 2-bromo-PP and 3-bromo-PP to further investigate the mechanism of antibacterial action and resistance. Since isolation of spontaneous resistant mutants in one step was not successful on solid media containing 2-bromo-PP or 3-bromo-PP (i.e. resistance frequency < 10^−7 at 5-fold MIC), enrichment was done by passaging bacteria daily in liquid media containing increasing sublethal concentrations of PPs. […] Moreover, we observed cross-resistance between PPs since 2-bromo-PP-resistant mutants were also resistant against 3-bromo-PP and vice versa (Fig. 4a; Table 2).

[8] = system: persisters of P. aeruginosa POA1; test: Antipersister activity assay (Resazurin); assay type: cell-based; conditions: Pseudomonas aeruginosa, 24 h, read-out: MIC against persisters
[9] = system: preformed biofilms of P. aeruginosa POA1; test: Antibiofilm activity assay, viability by Resazurin reduction; assay type: cell-based, Pseudomonas aeruginosa
[10] = system: MRSA vector control strain harbouring empty plasmid pLA03; test: MIC in recombinant strain, empty vector control; assay type: cell-based; conditions: Staphylococcus aureus
Procedure: To corroborate the role as potential determinants of resistance, mtlA and tetR were overexpressed under control of an anhydrotetracycline (Atc)-inducible promoter, and the effect on sensitivity toward 3-bromo-PP was analysed (Fig. 4e). […] However, induction of mtlA or tetR expression in the presence of Atc strongly rendered the cells more susceptible to 3-bromo-PP resulting in MICs of 0.019 μM for mtlA and 0.078 μM for tetR overexpression, respectively. This translates into a […] and 8-fold increased sensitivity during mtlA or tetR overexpression, respectively, compared with the empty vector control (Fig. 4e).

Compound	time of first antibacterial effects [1] [h]	time until viability reached the detection limit [1] [h]	time until viability reduced to the detection limit ([2]; PPs at 4× MIC, NH125 10 μM, detection limit 10^2 CFU/mL) [h]	MIC90 (A. baumannii ATCC 1605; + 0.1 μM colistin)	MIC90 (A. baumannii ATCC 1605; without colistin)	MIC90 (E. faecalis ATCC 51299)	MIC90 [3]	MIC90 [4]	MIC90 [5]	MIC90 ([6]; ATCC25922, + 0.1 μM colistin)	MIC90 ([6]; ATCC25922, without colistin)	MIC90 [7]	MIC90 (S. aureus COL)	fold increased MIC of mutants (S. aureus) [fold]	resistance frequency (S. aureus)	MIC [8] [µM]	concentration of complete inhibition of cell viability in biofilms [9] [µM]	decrease of viability of persistent cells after 24 h ([2]; 3-bromo-PP at 4× MIC, moxifloxacin control, 24 h) [logs]	MIC [10] [µM]
Oc1c(Br)cc(Br)cc1Oc1ccc(Br)cc1Br [2-bromo-PP, 4,6-dibromo-2-(2′,4′-dibromophenoxy)phenol]	3	8	8	0.39 µM and 0.2 µg/mL	0.78 µM and 0.39 µg/mL	0.78 µM and 0.39 µg/mL	0.39 µM and 0.2 µg/mL	0.78 µM and 0.39 µg/mL	1.56 µM and 0.78 µg/mL	0.04 µM and 0.02 µg/mL	3.12 µM and 1.57 µg/mL	0.39 µM and 0.2 µg/mL	0.78 µM and 0.39 µg/mL	4	< 10^−7	12.5 (≈ 6.27 µg/mL)	25	–	–
Oc1c(Br)cc(Br)c(Br)c1Oc1ccc(Br)cc1Br [3-bromo-PP, 3,4,6-tribromo-2-(2′,4′-dibromophenoxy)phenol]	6	8	–	0.78 µM and 0.45 µg/mL	1.56 µM and 0.91 µg/mL	0.78 µM and 0.45 µg/mL	0.78 µM and 0.45 µg/mL	1.56 µM and 0.9 µg/mL	3.12 µM and 1.81 µg/mL	0.04 µM and 0.02 µg/mL	6.25 µM and 3.63 µg/mL	0.39 µM and 0.23 µg/mL	0.78 µM and 0.45 µg/mL	32	< 10^−7	50 (≈ 29 µg/mL)	50	2	~0.625
